The source of these data is patent US10034886B2, “GLP-1 receptor modulators” (Celgene International II SÀRL, priority 2014, dated 2018).

In this experiment the target is T1, GLP-1R (Homo sapiens, UniProt P43220).
T1 construct: host or cells: GLP-1R CRE-bla CHO-K1 cells
T1 sequence (P43220 24-463): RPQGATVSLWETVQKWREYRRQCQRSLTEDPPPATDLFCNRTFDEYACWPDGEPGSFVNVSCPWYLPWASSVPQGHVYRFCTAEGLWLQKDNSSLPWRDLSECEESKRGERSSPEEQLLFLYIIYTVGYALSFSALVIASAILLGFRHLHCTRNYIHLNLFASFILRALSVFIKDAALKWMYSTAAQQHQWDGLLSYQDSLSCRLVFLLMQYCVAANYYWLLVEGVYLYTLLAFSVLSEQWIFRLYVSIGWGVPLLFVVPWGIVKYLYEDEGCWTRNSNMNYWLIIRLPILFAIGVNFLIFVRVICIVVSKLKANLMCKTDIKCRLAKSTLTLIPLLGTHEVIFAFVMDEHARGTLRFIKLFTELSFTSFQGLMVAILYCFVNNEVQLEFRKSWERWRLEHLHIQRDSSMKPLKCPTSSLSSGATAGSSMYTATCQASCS
T1 sequence (P01275 100-127 partner limits assumed): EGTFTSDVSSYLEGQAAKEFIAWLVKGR
Description: EC20 GLP-1(9-36) PAM cAMP assay: dose response of compound in the presence of fixed concentration of GLP-1(9-36). It counts as cell-based. Particulars: dose response of compound in presence of fixed concentration of GLP-1(9-36), GLP-1R CRE-bla CHO-K1 cells, read-out: EC20 GLP-1(9-36) PAM EC50. In short, it runs like this: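 Positive allosteric modulation read as cAMP accumulation: compound titrations (12 points) combined with an EC20 level of GLP-1(9-36) on CHO-K1 GLP-1R CRE-bla cells, IBMX present, 30 min, 37 °C, pH 7.4 buffer. Luminescence converted to cAMP via standards; non-linear fit gave EC50 and Emax.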
In general terms: Changes in cAMP serve as a functional read-out for many G protein-coupled receptors.
On to `C[C@@H](NC(=O)[C@H](Cc1ccc(-c2ncc(-c3ccc(-c4ccc(C(F)(F)F)cc4)cc3F)cn2)cc1)NC(=O)c1ccc(C(C)(C)C)s1)C(=O)O` [Compound 1174], for which the EC50 was < 800 nM. In the case of `Cc1cc(-c2ccc(-c3cnc(-c4ccc(C[C@H](NC(=O)c5ccc(C(C)(C)C)s5)C(=O)N[C@H](C)C(=O)O)cc4)nc3)c(F)c2)ccc1OC(F)(F)F` [Compound 1175] it was < 800 nM; in that of `CC(C)(C)c1ccc(C(=O)N[C@@H](Cc2ccc(-c3ncc(-c4ccc([C@H]5CC[C@H](C)CC5)cc4)cn3)cc2)C(=O)N2CC(C(=O)O)C2)s1` [Compound 1176], < 800 nM; in that of `CC(C)(C)c1ccc(C(=O)N[C@@H](Cc2ccc(-c3ncc(-c4ccc([C@H]5CC[C@@H](C)CC5)cc4)cn3)cc2)C(=O)N2CC(C(=O)O)C2)s1` [Compound 1177], < 800 nM.

Consider `CC(C)[C@H]1CC[C@H](c2ccc(-c3cnc(-c4ccc(C[C@H](NC(=O)c5ccc(C(C)(C)C)s5)C(=O)N5CC(C(=O)O)C5)cc4)nc3)cc2)CC1` [Compound 1178], for which the EC50 is < 800 nM. As for `CC(C)[C@H]1CC[C@@H](c2ccc(-c3cnc(-c4ccc(C[C@H](NC(=O)c5ccc(C(C)(C)C)s5)C(=O)N5CC(C(=O)O)C5)cc4)nc3)cc2)CC1` [Compound 1179], the EC50 was < 800 nM. The result for `CC(C)(C)c1ccc(C(=O)N[C@@H](Cc2ccc(-c3ncc(-c4ccc(C5CCOCC5)cc4)cn3)cc2)C(=O)N2CC(C(=O)O)C2)s1` [Compound 1180] reads 2500 to 5000 nM; that for `CC(C)(C)c1ccc(C(=O)N[C@@H](Cc2ccc(-c3ncc(-c4ccc([C@H]5CC[C@H](C(C)(C)C)CC5)cc4)cn3)cc2)C(=O)N2CC(C(=O)O)C2)s1` [Compound 1181], 800 to 2500 nM. The result for `CC(C)(C)c1ccc(C(=O)N[C@@H](Cc2ccc(-c3ncc(-c4ccc([C@H]5CC[C@@H](C(C)(C)C)CC5)cc4)cn3)cc2)C(=O)N2CC(C(=O)O)C2)s1` [Compound 1182] reads < 800 nM. In the case of `CC(C)(C)c1ccc(C(=O)N[C@@H](Cc2ccc(-c3ncc(-c4ccc(C5CCC(F)(F)CC5)cc4)cn3)cc2)C(=O)N2CC(C(=O)O)C2)s1` [Compound 1183] it was < 800 nM.

For `CC(C)(C)c1ccc(C(=O)N[C@@H](Cc2ccc(-c3ncc(-c4ccc([C@H]5CC[C@H](C(F)(F)F)CC5)cc4)cn3)cc2)C(=O)N2CC(C(=O)O)C2)s1` [Compound 1184], the EC50 is < 800 nM. In the case of `CC(C)(C)c1ccc(C(=O)N[C@@H](Cc2ccc(-c3ncc(-c4ccc([C@H]5CC[C@@H](C(F)(F)F)CC5)cc4)cn3)cc2)C(=O)N2CC(C(=O)O)C2)s1` [Compound 1185] it was < 800 nM; in that of `CC(C)(C)c1ccc(C(=O)N[C@@H](Cc2ccc(-c3ncc(-c4ccc(C5CCC6(CC5)OCCO6)cc4)cn3)cc2)C(=O)N2CC(C(=O)O)C2)s1` [Compound 1186], < 800 nM. In the case of `CC1CCC(c2ccc(-c3cnc(-c4ccc(C[C@H](NC(=O)c5ccc(C(C)(C)C)s5)C(=O)N5CC(C(=O)O)C5)cc4)nc3)cc2)CC1` (stereo partly shown) [Compound 1187] it was < 800 nM; in that of `CC(C)(C)c1ccc(C(=O)N[C@@H](Cc2ccc(-c3ncc(-c4ccc(-c5ccc(OC(F)(F)F)cc5)cc4F)cn3)cc2)C(=O)N2CC(C(=O)O)C2)s1` [Compound 1188], < 800 nM; in that of `CCc1ccc(-c2ccc(-c3cnc(-c4ccc(C[C@H](NC(=O)c5ccc(C(C)(C)C)s5)C(=O)N5CC(C(=O)O)C5)cc4)nc3)c(F)c2)cc1` [Compound 1189], < 800 nM. `CC(C)(C)c1ccc(C(=O)N[C@@H](Cc2ccc(-c3ncc(-c4ccc(-c5ccc(Cl)cc5)cc4F)cn3)cc2)C(=O)N2CC(C(=O)O)C2)s1` [Compound 1190]: the EC50 was < 800 nM. In the case of `Cc1cc(C)cc(-c2ccc(-c3cnc(-c4ccc(C[C@H](NC(=O)c5ccc(C(C)(C)C)s5)C(=O)N5CC(C(=O)O)C5)cc4)nc3)c(F)c2)c1` [Compound 1191] it was < 800 nM; in that of `CC(C)(C)c1ccc(C(=O)N[C@@H](Cc2ccc(-c3ncc(-c4ccc(-c5cccc(Cl)c5)cc4F)cn3)cc2)C(=O)N2CC(C(=O)O)C2)s1` [Compound 1192], < 800 nM.

Broadly, the EC50 is the concentration at which the effect is half-maximal.
